Where two headings read alike, the source gives them in different places.
What was measured:
[1] = 10 mg/mL in sterile H2O, cited from earlier work
TC-1 tumor = TC-1 tumor regression study, ADXS11-001 with or without ampicillin; assay type: in vivo, C57BL/6 female mice; conditions: DP ADXS11-001 (HPV 1.0) IP, ampicillin 100 mg/kg IP at 4-hr, 6-hr, 24-hr
Procedure: FIG. 20A-B Results for ADXS11-001 therapy with our without early ampicillin treatment. TC1 tumor regression (FIG. 20A) and % survival (FIG. 20B).
A tumor regression study was initiated in C57BL/6 female mice using TC-1 lung epithelial cells to assess the therapeutic efficacy of different Lm treatment with or without ampicillin treatment and whether it alters the tumor microenvironment.
Tumor Inoculation: The tumor model used in this study is the TC-1 tumor model. TC-1 cells are cultured in complete medium. Complete medium for TC-1 cells: 450 ml RPMI 1640, 50 ml 10%FBS, 5 ml NEAA (100 uM), 5 ml L-Glutamine ([…]), and 5 ml Pen/strep (100 U/mL) penicillin+100 ug/mL streptomycin) G418 (400 ug/mL) (added to cells when splitting). Two days prior to implanting tumor cells in mice, TC-1 cells were sub-cultured in complete media. On the day of the experiment (Day 0), cells were trypsinized and washed twice with media. Cells were counted and re-suspended at a concentration of 1×10^5 cells/200 ul in PBS/mouse for injection. Tumor cells were injected subcutaneously in the right flank of each mouse. Tumors were measured twice a week until they reached a size of 12 mm in diameter. Once tumors met sacrifice criteria, mice were euthanized and tumors were excised and measured.
Vaccine/Ampicillin Treatment: On Day 6, when tumors are ˜5mm in size; vaccines and treatments began. […]

TPSA23 tumor = TPSA23 tumor regression study, ADXS31-142 with or without ampicillin; assay type: in vivo, C57BL/6 male mice; conditions: DP ADXS31-142 (PSA 1.0) IP, ampicillin 100 mg/kg IP at 4-hr, 6-hr, 24-hr
Procedure: FIG. 22A-B Results for ADXS31-142 therapy with our without early ampicillin treatment. TC1 tumor regression (FIG. 22A) and % survival (FIG. 22B).
A tumor regression study was initiated in C57BL/6 male mice using TPSA23 prostate cancer cells to assess the therapeutic efficacy of different Lm treatment with or without ampicillin treatment.
Tumor Inoculation: The tumor model used in this study is the TPSA23 tumor model. TPSA23 cells are cultured in complete medium. Complete medium for TPSA23 cells: 430 ml DMEM with Glucose, 45 ml FBS, 25 ml Nu-Serum IV, 5 ml L-Glutamine, 5 ml Na-bicarbonate, 0.005 mg/ml Bovine Insulin—Insulin stock (2.5 mg/ml) is prepared in acidified water (10 ml water+100 ul glacial acetic acid) (Add to the flask while splitting cells—6.4 uL/8 mLs media, 12.8 uL/16 mLs media, 19.2 uL/24 mLs media, etc.), and 10 nM Dehydroisoandrosterone (DHA)—DHA stock (10 mM) is prepared in ethanol. (Add to the flask while splitting cells—140 uL/70 mLs media, 70 uL/35 mLs media, 35 uL/17.5 mLs media, etc.). Two days prior to implanting tumor cells in mice, TPSA23 cells are sub-cultured in complete media. […] Cells were counted and re-suspended at a concentration of 2×10^6 cells/200 ul in PBS/mouse for injection. […] Tumors are measured twice a week until they reach a size of 12 mm in diameter. Once tumors met sacrifice criteria, mice were euthanized and tumors were excised and measured. […]

[2] = system: PSA-specific and SIINFEKL-specific immunity; experiment: PSA- and […]-specific CD8 T cells after PSA-SVN Tag with early antibiotics; assay type: in vivo, C57BL/6 mice; conditions: PSA-SVN Tag IP, spleens day 7
Procedure: FIGS. 17A-D Results from early time point administration of ampicillin at 2 hours, 4 hours, and 6 hours post-Lm vaccine. % PSA specific CD8 T cells (FIG. 17A), % […] specific CD8 T cells (FIG. 17B), # of PSA specific CD8 cells (FIG. 17C), and # of […] specific CD8 cells (FIG. 17D).
FIGS. 18A-B Splenocytes from early gentamicin treatment at 2 hours, 4 hours, or 6 hours +ampicillin 24 hour chase of LM-PSA-SVN treated mice. % PSA specific CD8 T cells (FIG. 18A) and % […] specific CD8 T cells (FIG. 18B).
An assay was performed to examine the generation of […]-specific and PSA-specific immunity in mice treated with ampicillin or gentamicin/ampicillin and immunized with PSA-SVN Tag. The […]-specific immune response was detected by pentamer staining using the known T cell epitopes for C57BL/6 mice, H-2 Db PSA65-73 ([…]) and H-2 Kb OVA257-264 ([…]).
Prime-Harvest with Ampicillin: On Day 0, all groups were infected with PSA-SVN Tag LM IP, and then ampicillin was administered at 100 mg/kg IP at various time points from hour 2, 4, 6, 24. All Animals (except negative control) were given 1 dose of ampicillin at 24 hours. 7 days after Day 0 infection, mice were sacrificed and spleens were harvested and analyzed for specific T-cell epitopes to H-2 Db PSA65-73 ([…]) and H-2 Kb OVA257-264 ([…]). […]

Molecule | solution stability [1] | survival, difference between Lm treatment groups with or without ampicillin (TC-1 tumor) | tumor regression, difference between Lm treatment groups with or without ampicillin (TC-1 tumor) | survival, difference between Lm treatment groups with or without ampicillin (TPSA23 tumor) | tumor regression, difference between Lm treatment groups with or without ampicillin (TPSA23 tumor) | PSA specific and SIINFEKL specific CD8 T cells, difference between groups ([2]; ampicillin 100 mg/kg IP at 2, 4, 6 hours plus 24 hours) | solution stability ([1]; 2-8 C) | solution stability ([1]; at 37 C) | PSA specific and SIINFEKL specific CD8 T cells, difference between groups ([2]; gentamicin 5 mg/kg IP at 2, 4, 6 hours plus ampicillin 24 hour chase)
CC1(C)S[C@@H]2[C@H](NC(=O)[C@H](N)c3ccccc3)C(=O)N2[C@H]1C(=O)O [ampicillin] | 3 days | No significant difference | No significant difference | No significant difference | No significant difference | No significant difference |  |  | 
gentamicin |  |  |  |  |  |  | months | 5 days | No significant difference
